Reference: PubChem BioAssay AID1919009 (Molecular Pharmacology Branch, DTP, NCI, 2023)

Tested on: K24384-001-R-PDC complex spheroid growth
Experiment: Anticancer human tumor K24384-001-R-PDC patient-derived pancreatic adenocarcinoma cell line growth inhibition [AhR]
Details: for IC50: curve of first compound; for viability, T/C: stronger effect = lower value; active = viability on the fitted dose curve at most 10% of control; inactive = the rest
Procedure, shortened: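 Spheroids combined tumor cells with HUVEC endothelial cells and human MSCs as stroma. AhR antagonists were paired with standard or investigational drugs, each dosed in half-log steps down from near clinical Cmax, or from 10 microM where Cmax was unknown.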

[1] = second compound 0.1 µM, first compound 0.0316 µM
[2] = second compound 0.1 µM, first compound 0.1 µM
[3] = second compound 0.1 µM, first compound 0.316 µM
[4] = second compound 0.1 µM, first compound 1 µM
[5] = second compound 0.316 µM, first compound 0.0316 µM
[6] = second compound 0.316 µM, first compound 0.1 µM
[7] = second compound 0.316 µM, first compound 0.316 µM
[8] = second compound 0.316 µM, first compound 1 µM
[9] = second compound 1 µM, first compound 0.0316 µM
[10] = second compound 1 µM, first compound 0.1 µM
[11] = second compound 1 µM, first compound 0.316 µM
[12] = second compound 1 µM, first compound 1 µM
[13] = second compound 3.16 µM, first compound 0.0316 µM
[14] = second compound 3.16 µM, first compound 0.1 µM
[15] = second compound 3.16 µM, first compound 0.316 µM
[16] = second compound 3.16 µM, first compound 1 µM
[17] = second compound 10 µM, first compound 0.0316 µM
[18] = second compound 10 µM, first compound 0.1 µM
[19] = second compound 10 µM, first compound 0.316 µM
[20] = second compound 10 µM, first compound 1 µM
[21] = second compound 0.1 µM, first compound 3.16 µM
[22] = second compound 0.1 µM, first compound 10 µM
[23] = second compound 0.316 µM, first compound 3.16 µM
[24] = second compound 0.316 µM, first compound 10 µM
[25] = second compound 1 µM, first compound 3.16 µM
[26] = second compound 1 µM, first compound 10 µM
[27] = second compound 3.16 µM, first compound 3.16 µM
[28] = second compound 3.16 µM, first compound 10 µM
[29] = second compound 10 µM, first compound 3.16 µM
[30] = second compound 10 µM, first compound 10 µM
[31] = second compound 0.1 µM, first compound 0.00949 µM
[32] = second compound 0.1 µM, first compound 0.03 µM
[33] = second compound 0.1 µM, first compound 0.0949 µM
[34] = second compound 0.1 µM, first compound 0.3 µM
[35] = second compound 0.316 µM, first compound 0.00949 µM
[36] = second compound 0.316 µM, first compound 0.03 µM
[37] = second compound 0.316 µM, first compound 0.0949 µM
[38] = second compound 0.316 µM, first compound 0.3 µM
[39] = second compound 1 µM, first compound 0.00949 µM
[40] = second compound 1 µM, first compound 0.03 µM
[41] = second compound 1 µM, first compound 0.0949 µM
[42] = second compound 1 µM, first compound 0.3 µM
[43] = second compound 3.16 µM, first compound 0.00949 µM
[44] = second compound 3.16 µM, first compound 0.03 µM
[45] = second compound 3.16 µM, first compound 0.0949 µM
[46] = second compound 3.16 µM, first compound 0.3 µM
[47] = second compound 10 µM, first compound 0.00949 µM
[48] = second compound 10 µM, first compound 0.03 µM
[49] = second compound 10 µM, first compound 0.0949 µM
[50] = second compound 10 µM, first compound 0.3 µM
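Throughout, for viability, T/C: percent of DMSO vehicle-treated spheroid viability set as 100%.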

CC1COCCN1c1cc(-c2ccnn2C)c2ccnc(-c3ccn[nH]3)c2n1 (stereo not given) + Cc1ccccc1N=Nc1ccc(NC(=O)c2ccnn2C)c(C)c1
168 nM: IC50 (second compound 10 µM)
99.1 nM: IC50 (second compound 3.16 µM)
94.8 nM: IC50 (second compound 1 µM)
inactive: viability, T/C (second compound 0.1 µM, first compound 0.00316 µM) 101% | viability, T/C (second compound 0.1 µM, first compound 0.01 µM) 107% | viability, T/C [1] 82.2% | viability, T/C [2] 52.3% | viability, T/C [3] 29.6% | viability, T/C [4] 28.2% | viability, T/C (second compound 0.316 µM, first compound 0.00316 µM) 114% | viability, T/C (second compound 0.316 µM, first compound 0.01 µM) 120% | viability, T/C [5] 80.5% | viability, T/C [6] 54.2% | viability, T/C [7] 32.5% | viability, T/C [8] 26.7% | viability, T/C (second compound 1 µM, first compound 0.00316 µM) 103% | viability, T/C (second compound 1 µM, first compound 0.01 µM) 99.5% | viability, T/C [9] 102% | viability, T/C [10] 47.5% | viability, T/C [11] 29.1% | viability, T/C [12] 28.6% | viability, T/C (second compound 3.16 µM, first compound 0.00316 µM) 101% | viability, T/C (second compound 3.16 µM, first compound 0.01 µM) 92.1% | viability, T/C [13] 82.1% | viability, T/C [14] 48.7% | viability, T/C [15] 33.4% | viability, T/C [16] 28.5% | viability, T/C (second compound 10 µM, first compound 0.00316 µM) 129% | viability, T/C (second compound 10 µM, first compound 0.01 µM) 128% | viability, T/C [17] 108% | viability, T/C [18] 57.1% | viability, T/C [19] 39.7% | viability, T/C [20] 42.4%
103 nM: IC50 (second compound 0.1 µM)
105 nM: IC50 (second compound 0.316 µM)

CC1COCCN1c1cc(C2(S(C)(=N)=O)CC2)nc(-c2ccnc3[nH]ccc23)n1 (stereo not given) + Cc1ccccc1N=Nc1ccc(NC(=O)c2ccnn2C)c(C)c1
1550 nM: IC50 (second compound 3.16 µM)
2100 nM: IC50 (second compound 0.1 µM)
2360 nM: IC50 (second compound 0.316 µM)
2750 nM: IC50 (second compound 10 µM)
2140 nM: IC50 (second compound 1 µM)
inactive: viability, T/C [1] 102% | viability, T/C [2] 126% | viability, T/C [3] 105% | viability, T/C [4] 70.1% | viability, T/C [21] 38.7% | viability, T/C [22] 35.5% | viability, T/C [5] 111% | viability, T/C [6] 115% | viability, T/C [7] 97.2% | viability, T/C [8] 76.2% | viability, T/C [23] 39.5% | viability, T/C [24] 30.9% | viability, T/C [9] 95.2% | viability, T/C [10] 106% | viability, T/C [11] 90.5% | viability, T/C [12] 71.6% | viability, T/C [25] 38.8% | viability, T/C [26] 29.2% | viability, T/C [13] 76.4% | viability, T/C [14] 116% | viability, T/C [15] 95.8% | viability, T/C [16] 60.4% | viability, T/C [27] 35.5% | viability, T/C [28] 27.4% | viability, T/C [17] 109% | viability, T/C [18] 97.1% | viability, T/C [19] 98.5% | viability, T/C [20] 75.8% | viability, T/C [29] 45.8% | viability, T/C [30] 38.2%

COc1ccc([C@@H](O)c2cc(-c3ncnc4cc(N5CCOCC5)ccc34)c(F)cc2Cl)nn1 + Cc1ccccc1N=Nc1ccc(NC(=O)c2ccnn2C)c(C)c1
3680 nM: IC50 (second compound 10 µM)
5910 nM: IC50 (second compound 0.1 µM)
inactive: viability, T/C [1] 99.7% | viability, T/C [2] 99% | viability, T/C [3] 82.2% | viability, T/C [4] 66.7% | viability, T/C [21] 62.5% | viability, T/C [22] 42.1% | viability, T/C [5] 99.3% | viability, T/C [6] 90.5% | viability, T/C [7] 80.4% | viability, T/C [8] 82% | viability, T/C [23] 53.8% | viability, T/C [24] 37.2% | viability, T/C [9] 96.1% | viability, T/C [10] 95.7% | viability, T/C [11] 86.1% | viability, T/C [12] 70.8% | viability, T/C [25] 51.9% | viability, T/C [26] 37.8% | viability, T/C [13] 99.9% | viability, T/C [14] 96.6% | viability, T/C [15] 81% | viability, T/C [16] 64.2% | viability, T/C [27] 47.2% | viability, T/C [28] 34.9% | viability, T/C [17] 97% | viability, T/C [18] 103% | viability, T/C [19] 82.5% | viability, T/C [20] 78.7% | viability, T/C [29] 50.9% | viability, T/C [30] 32.7%
2540 nM: IC50 (second compound 3.16 µM)
4850 nM: IC50 (second compound 0.316 µM)
3610 nM: IC50 (second compound 1 µM)

Nc1ncn(C2CC(O)C(CO)S2)c(=O)n1 (stereo not given) + Cc1ccccc1N=Nc1ccc(NC(=O)c2ccnn2C)c(C)c1
inactive: viability, T/C (second compound 0.1 µM, first compound 0.000949 µM) 92.5% | viability, T/C (second compound 0.1 µM, first compound 0.003 µM) 103% | viability, T/C [31] 105% | viability, T/C [32] 79.3% | viability, T/C [33] 66% | viability, T/C [34] 57.8% | viability, T/C (second compound 0.316 µM, first compound 0.000949 µM) 111% | viability, T/C (second compound 0.316 µM, first compound 0.003 µM) 99.7% | viability, T/C [35] 88.4% | viability, T/C [36] 66.2% | viability, T/C [37] 65.8% | viability, T/C [38] 54.5% | viability, T/C (second compound 1 µM, first compound 0.000949 µM) 99.3% | viability, T/C (second compound 1 µM, first compound 0.003 µM) 82% | viability, T/C [39] 68.7% | viability, T/C [40] 78.9% | viability, T/C [41] 61.5% | viability, T/C [42] 58% | viability, T/C (second compound 3.16 µM, first compound 0.000949 µM) 86.6% | viability, T/C (second compound 3.16 µM, first compound 0.003 µM) 83.3% | viability, T/C [43] 92.6% | viability, T/C [44] 63.5% | viability, T/C [45] 53.1% | viability, T/C [46] 46.9% | viability, T/C (second compound 10 µM, first compound 0.000949 µM) 100% | viability, T/C (second compound 10 µM, first compound 0.003 µM) 103% | viability, T/C [47] 87.4% | viability, T/C [48] 82.8% | viability, T/C [49] 72.4% | viability, T/C [50] 60.7%
> 300 nM: IC50 (second compound 0.1 µM) | IC50 (second compound 0.316 µM) | IC50 (second compound 1 µM) | IC50 (second compound 3.16 µM) | IC50 (second compound 10 µM)

O=C(C=Cn1cnc(-c2cc(C(F)(F)F)cc(C(F)(F)F)c2)n1)NNc1cnccn1 + Cc1ccccc1N=Nc1ccc(NC(=O)c2ccnn2C)c(C)c1
144 nM: IC50 (second compound 0.316 µM)
158 nM: IC50 (second compound 1 µM)
149 nM: IC50 (second compound 3.16 µM)
132 nM: IC50 (second compound 10 µM)
238 nM: IC50 (second compound 0.1 µM)
inactive: viability, T/C [31] 101% | viability, T/C [32] 104% | viability, T/C [33] 68.2% | viability, T/C [34] 47.9% | viability, T/C (second compound 0.1 µM, first compound 0.949 µM) 27.1% | viability, T/C (second compound 0.1 µM, first compound 3 µM) 22.9% | viability, T/C [35] 88% | viability, T/C [36] 106% | viability, T/C [37] 62.3% | viability, T/C [38] 32.6% | viability, T/C (second compound 0.316 µM, first compound 0.949 µM) 30.2% | viability, T/C (second compound 0.316 µM, first compound 3 µM) 22.1% | viability, T/C [39] 97.4% | viability, T/C [40] 89% | viability, T/C [41] 62.3% | viability, T/C [42] 34.2% | viability, T/C (second compound 1 µM, first compound 0.949 µM) 26.5% | viability, T/C (second compound 1 µM, first compound 3 µM) 23% | viability, T/C [43] 76.9% | viability, T/C [44] 77.6% | viability, T/C [45] 59.3% | viability, T/C [46] 34% | viability, T/C (second compound 3.16 µM, first compound 0.949 µM) 27.9% | viability, T/C (second compound 3.16 µM, first compound 3 µM) 19.7% | viability, T/C [47] 86.3% | viability, T/C [48] 79.4% | viability, T/C [49] 57.5% | viability, T/C [50] 31.4% | viability, T/C (second compound 10 µM, first compound 0.949 µM) 32.9% | viability, T/C (second compound 10 µM, first compound 3 µM) 25.8%
